How the values were obtained:
[1] = tested on: pigweed; assay: Test D preemergence; format: in vivo, Amaranthus retroflexus; settings: Amaranthus retroflexus, pre-emergence
Outline: (§1)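 In a controlled growth environment, treated and control plants were held 7 to 21 days, then compared visually. Damage was scored 0–100, where 100 means complete control. Sprays contained surfactant in a non-phytotoxic solvent; post-applied plants were at the 1- to 4-leaf stage.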

[2] = tested on: galium; assay: Test D preemergence; format: in vivo, Galium aparine; settings: Galium, pre-emergence, scale 0-100, read-out: Plant response rating, Galium
Outline: as §1

[3] = tested on: field poppy; assay: Test D preemergence; format: in vivo, Papaver rhoeas; settings: Papaver rhoeas, pre-emergence, scale 0-100, read-out: Plant response rating, Field Poppy
Outline: as §1

[4] = tested on: oilseed rape; assay: Test D postemergence; format: in vivo, Brassica napus; settings: Brassica napus, post-emergence, scale 0 to 100 (0 no effect, 100 complete control), read-out: Plant response rating, Oilseed Rape
Outline: as §1

[5] = tested on: windgrass; assay: Test D postemergence; format: in vivo, Apera spica-venti; settings: Apera spica-venti, post-emergence, scale 0 to 100 (0 no effect, 100 complete control), read-out: Plant response rating, Windgrass
Outline: as §1

[6] = tested on: field poppy; assay: Test D postemergence; format: in vivo, Papaver rhoeas; settings: Papaver rhoeas, post-emergence, scale 0 to 100 (0 no effect, 100 complete control), read-out: Plant response rating, Field Poppy
Outline: as §1

[7] = tested on: canarygrass; assay: Test D postemergence; format: in vivo, Phalaris minor; settings: Phalaris minor, post-emergence, scale 0 to 100 (0 no effect, 100 complete control), read-out: Plant response rating, Canarygrass
Outline: as §1

[8] = tested on: arrowleaf sida; assay: Test E postemergence; format: in vivo, Sida rhombifolia; settings: Sida rhombifolia, post-emergence, read-out: Plant response rating, Arrowleaf Sida
Outline: (§2)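 Compound in a non-phytotoxic solvent mixture with surfactant was applied preemergence to seeds in silt loam soil, or postemergence to plants 2 to 18 cm tall grown in peat-based potting medium. Plants were kept in a greenhouse for 14 to 21 days, then rated visually against untreated controls on a 0 (no effect) to 100 (complete control) scale.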

[9] = tested on: winter barley; assay: Test D preemergence; format: in vivo, Hordeum vulgare; settings: Hordeum vulgare, pre-emergence, scale 0-100, read-out: Plant response rating, Barley, Winter
Outline: as §1

[10] = tested on: spring barley; assay: Test D preemergence; format: in vivo, Hordeum vulgare; settings: Hordeum vulgare, pre-emergence, scale 0-100, read-out: Plant response rating, Barley, Spring
Outline: as §1

[11] = tested on: cocklebur; assay: Test E preemergence; format: in vivo, Xanthium strumarium; settings: for Cocklebur plant response rating: scale 0 to 100 (0 no effect, 100 complete control)
Outline: as §2

[12] = tested on: fall panicum; assay: Test E postemergence; format: in vivo, Panicum dichotomiflorum; settings: Panicum dichotomiflorum, post-emergence, read-out: Plant response rating, Panicum, Fall
Outline: as §2

[13] = tested on: dayflower; assay: Test E postemergence; format: in vivo, Commelina virginica; settings: Commelina virginica, post-emergence, read-out: Plant response rating, Dayflower, VA
Outline: as §2

[14] = Postemergence, 31 g ai/ha, scale 0 to 100
[15] = Postemergence, 62 g ai/ha, scale 0 to 100
[16] = Postemergence, 125 g ai/ha, scale 0 to 100
[17] = Postemergence, 250 g ai/ha, scale 0 to 100
[18] = postemergence, 16 g ai/ha, scale 0 to 100, 0 no effect, 100 complete control

For N#Cc1cccc(Oc2ncc(Br)cn2)c1-n1cc(C(F)(F)F)cn1 [Compound 59, 3-[(5-bromo-2-pyrimidinyl)oxy]-2-[4-(trifluoromethyl)-1H-pyrazol-1-yl]benzonitrile], which pest or weed control at 31 g/ha ([1]; 31 g ai/ha, scale 0 (no effect) to 100 (complete control), read-out: Plant response rating, Pigweed) is on record?
The pest or weed control at 31 g/ha was 100%.

And the pest or weed control at 62 g/ha ([1]; 62 g ai/ha, scale 0-100, read-out: Plant response rating, Pigweed)?
Its pest or weed control at 62 g/ha is 100%.

And the pest or weed control at 125 g/ha ([1]; 125 g ai/ha, scale 0-100, read-out: Plant response rating, Pigweed)?
The pest or weed control at 125 g/ha was 100%.

What about the pest or weed control at 250 g/ha ([1]; 250 g ai/ha, scale 0-100, read-out: Plant response rating, Pigweed) of the same compound?
Its pest or weed control at 250 g/ha is 100%.

What about the pest or weed control at 31 g/ha ([2]; 31 g ai/ha) of the same compound?
The pest or weed control at 31 g/ha was 0%.

What about the pest or weed control at 62 g/ha ([2]; 62 g ai/ha) of the same compound?
Its pest or weed control at 62 g/ha is 95%.

And the pest or weed control at 125 g/ha ([2]; 125 g ai/ha)?
Its pest or weed control at 125 g/ha is 60%.

And the pest or weed control at 250 g/ha ([2]; 250 g ai/ha)?
The pest or weed control at 250 g/ha was 100%.

And the pest or weed control at 31 g/ha ([3]; 31 g ai/ha)?
Its pest or weed control at 31 g/ha is 95%.

And the pest or weed control at 62 g/ha ([3]; 62 g ai/ha)?
The pest or weed control at 62 g/ha was 100%.

What about the pest or weed control at 125 g/ha ([3]; 125 g ai/ha) of the same compound?
The pest or weed control at 125 g/ha was 100%.

And the pest or weed control at 250 g/ha ([3]; 250 g ai/ha)?
The pest or weed control at 250 g/ha was 100%.

And the plant injury at 31 g/ha ([4]; 31 g ai/ha)?
The plant injury at 31 g/ha was 65%.

What about the plant injury at 62 g/ha ([4]; 62 g ai/ha) of the same compound?
Its plant injury at 62 g/ha is 65%.

And the plant injury at 125 g/ha ([4]; 125 g ai/ha)?
Its plant injury at 125 g/ha is 75%.

What about the plant injury at 250 g/ha ([4]; 250 g ai/ha) of the same compound?
The plant injury at 250 g/ha was 100%.

What about the pest or weed control at 31 g/ha ([5]; 31 g ai/ha) of the same compound?
The pest or weed control at 31 g/ha was 15%.

What about the pest or weed control at 62 g/ha ([5]; 62 g ai/ha) of the same compound?
The pest or weed control at 62 g/ha was 25%.

And the pest or weed control at 125 g/ha ([5]; 125 g ai/ha)?
The pest or weed control at 125 g/ha was 35%.

What about the pest or weed control at 250 g/ha ([5]; 250 g ai/ha) of the same compound?
Its pest or weed control at 250 g/ha is 45%.

What about the pest or weed control at 31 g/ha ([6]; 31 g ai/ha) of the same compound?
Its pest or weed control at 31 g/ha is 70%.

And the pest or weed control at 62 g/ha ([6]; 62 g ai/ha)?
Its pest or weed control at 62 g/ha is 65%.

And the pest or weed control at 125 g/ha ([6]; 125 g ai/ha)?
Its pest or weed control at 125 g/ha is 100%.

What about the pest or weed control at 250 g/ha ([6]; 250 g ai/ha) of the same compound?
Its pest or weed control at 250 g/ha is 100%.

What about the pest or weed control at 31 g/ha ([7]; 31 g ai/ha) of the same compound?
The pest or weed control at 31 g/ha was 20%.

And the pest or weed control at 62 g/ha ([7]; 62 g ai/ha)?
Its pest or weed control at 62 g/ha is 30%.

What about the pest or weed control at 125 g/ha ([7]; 125 g ai/ha) of the same compound?
The pest or weed control at 125 g/ha was 35%.

What about the pest or weed control at 250 g/ha ([7]; 250 g ai/ha) of the same compound?
The pest or weed control at 250 g/ha was 35%.

And the pest or weed control at 31 g/ha [8, 14]?
Its pest or weed control at 31 g/ha is 70%.

What about the pest or weed control at 62 g/ha [8, 15] of the same compound?
The pest or weed control at 62 g/ha was 80%.

And the pest or weed control at 125 g/ha [8, 16]?
Its pest or weed control at 125 g/ha is 85%.

What about the pest or weed control at 250 g/ha [8, 17] of the same compound?
The pest or weed control at 250 g/ha was 90%.

What about the pest or weed control at 16 g/ha [8, 18] of the same compound?
The pest or weed control at 16 g/ha was 65%.

And the plant injury at 31 g/ha ([9]; 31 g ai/ha)?
The plant injury at 31 g/ha was 0%.

What about the plant injury at 62 g/ha ([9]; 62 g ai/ha) of the same compound?
Its plant injury at 62 g/ha is 10%.

And the plant injury at 125 g/ha ([9]; 125 g ai/ha)?
The plant injury at 125 g/ha was 40%.

And the plant injury at 250 g/ha ([9]; 250 g ai/ha)?
The plant injury at 250 g/ha was 80%.

And the plant injury at 31 g/ha ([10]; 31 g ai/ha)?
The plant injury at 31 g/ha was 5%.

And the plant injury at 62 g/ha ([10]; 62 g ai/ha)?
The plant injury at 62 g/ha was 5%.

And the plant injury at 125 g/ha ([10]; 125 g ai/ha)?
Its plant injury at 125 g/ha is 50%.

What about the plant injury at 250 g/ha ([10]; 250 g ai/ha) of the same compound?
The plant injury at 250 g/ha was 75%.

What about the “Cocklebur plant response rating” value ([11]; 31 g ai/ha) of the same compound?
Its value is 0.

What about the “Cocklebur plant response rating” value ([11]; 62 g ai/ha) of the same compound?
Its value is 0.

And the “Plant response rating, Cocklebur” value ([11]; 250 g ai/ha, scale 0 to 100, 0 no effect, 100 complete control)?
Its value is 0.

And the pest or weed control at 31 g/ha [12, 14]?
The pest or weed control at 31 g/ha was 20%.

And the pest or weed control at 62 g/ha [12, 15]?
Its pest or weed control at 62 g/ha is 20%.

And the pest or weed control at 125 g/ha [12, 16]?
Its pest or weed control at 125 g/ha is 30%.

What about the pest or weed control at 250 g/ha [12, 17] of the same compound?
The pest or weed control at 250 g/ha was 45%.

What about the pest or weed control at 16 g/ha [12, 18] of the same compound?
Its pest or weed control at 16 g/ha is 10%.

And the pest or weed control at 31 g/ha [13, 14]?
The pest or weed control at 31 g/ha was 35%.

And the pest or weed control at 62 g/ha [13, 15]?
Its pest or weed control at 62 g/ha is 50%.

And the pest or weed control at 125 g/ha [13, 16]?
The pest or weed control at 125 g/ha was 70%.

And the pest or weed control at 250 g/ha [13, 17]?
The pest or weed control at 250 g/ha was 100%.

What about the pest or weed control at 16 g/ha [13, 18] of the same compound?
The pest or weed control at 16 g/ha was 20%.

Source: patent US9695155B2, “Herbicidal substituted pyrimidinyloxy benzene compounds” (E. I. DU PONT DE NEMOURS AND COMPANY, priority 2013, dated 2017)
